In publication PMC7180948, “New Insights into 4-Anilinoquinazolines as Inhibitors of Cardiac Troponin I–Interacting Kinase (TNNi3K)” (Molecules, 2020):

Experiments:
Assay in all cases: biochemical
Design in all cases: KINOMEscan competition binding panel (Eurofins DiscoverX), single concentration, percent inhibition
Settings in all cases: read-out: 15 at 1 µM % inhibition
[1] = molecular target: CDK9 (Homo sapiens, UniProt P50750)
Procedure: (§1) KinomeScan® Assay on 7 and 15 was performed as previously described by EuroFins DiscoverX [24]. GSK114 (7) and 15 were submitted for a KINOMEscan® assay to explore the selectivity profile across >400 human kinases at a compound concentration of 1 µM. […] GSK114 (7) is a narrow-spectrum TNNi3K inhibitor but has some potent off-targets including GAK which has been previously reported for this chemotype. […] If utilized together this set of compounds could be useful to investigate TNNi3K biology.

[2] = molecular target: FES (Homo sapiens, UniProt P07332)
Procedure: as §1

[3] = molecular target: CSNK1A1 (Homo sapiens, UniProt P48729)
CSNK1A1, sequence (P48729 whole entry): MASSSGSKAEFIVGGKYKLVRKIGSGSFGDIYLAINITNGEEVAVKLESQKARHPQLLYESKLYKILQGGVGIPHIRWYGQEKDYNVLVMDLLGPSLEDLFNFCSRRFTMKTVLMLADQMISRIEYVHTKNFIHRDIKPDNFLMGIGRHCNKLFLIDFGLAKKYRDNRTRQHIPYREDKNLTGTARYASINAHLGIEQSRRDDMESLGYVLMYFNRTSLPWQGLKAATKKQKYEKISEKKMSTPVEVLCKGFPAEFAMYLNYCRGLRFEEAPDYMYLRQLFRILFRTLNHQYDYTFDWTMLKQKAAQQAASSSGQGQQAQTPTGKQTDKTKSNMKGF
Procedure: as §1

[4] = molecular target: SNRK (Homo sapiens, UniProt Q9NRH2)
SNRK, sequence (Q9NRH2 whole entry): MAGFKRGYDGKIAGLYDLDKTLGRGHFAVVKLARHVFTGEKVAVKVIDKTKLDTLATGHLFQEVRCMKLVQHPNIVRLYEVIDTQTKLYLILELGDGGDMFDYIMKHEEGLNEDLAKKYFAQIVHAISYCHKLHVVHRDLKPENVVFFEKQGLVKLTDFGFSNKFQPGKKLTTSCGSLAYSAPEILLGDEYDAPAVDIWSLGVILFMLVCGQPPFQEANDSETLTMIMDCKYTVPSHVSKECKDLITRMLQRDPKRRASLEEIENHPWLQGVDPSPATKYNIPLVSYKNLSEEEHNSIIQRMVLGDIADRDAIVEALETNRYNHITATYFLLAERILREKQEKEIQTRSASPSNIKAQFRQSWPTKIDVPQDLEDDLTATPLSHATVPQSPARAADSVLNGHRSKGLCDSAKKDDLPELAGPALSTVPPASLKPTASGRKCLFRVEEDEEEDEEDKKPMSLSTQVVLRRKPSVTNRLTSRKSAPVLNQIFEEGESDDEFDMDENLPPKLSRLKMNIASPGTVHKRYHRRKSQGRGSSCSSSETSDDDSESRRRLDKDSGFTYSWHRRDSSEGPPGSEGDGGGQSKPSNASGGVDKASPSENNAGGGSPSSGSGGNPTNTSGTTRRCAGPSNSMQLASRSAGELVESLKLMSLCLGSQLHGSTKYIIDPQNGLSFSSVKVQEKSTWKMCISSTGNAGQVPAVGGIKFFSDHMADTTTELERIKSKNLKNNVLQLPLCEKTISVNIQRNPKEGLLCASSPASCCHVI
Procedure: as §1

[5] = molecular target: PRKCI (Homo sapiens, UniProt P41743)
Procedure: as §1

[6] = molecular target: T1, SGK (Homo sapiens, UniProt O00141)
T1 construct: gene SGK1
Procedure: as §1

[7] = molecular target: HUNK (Homo sapiens, UniProt P57058)
Procedure: as §1

[8] = molecular target: TTK (Homo sapiens, UniProt P33981)
TTK, sequence (P33981 whole entry): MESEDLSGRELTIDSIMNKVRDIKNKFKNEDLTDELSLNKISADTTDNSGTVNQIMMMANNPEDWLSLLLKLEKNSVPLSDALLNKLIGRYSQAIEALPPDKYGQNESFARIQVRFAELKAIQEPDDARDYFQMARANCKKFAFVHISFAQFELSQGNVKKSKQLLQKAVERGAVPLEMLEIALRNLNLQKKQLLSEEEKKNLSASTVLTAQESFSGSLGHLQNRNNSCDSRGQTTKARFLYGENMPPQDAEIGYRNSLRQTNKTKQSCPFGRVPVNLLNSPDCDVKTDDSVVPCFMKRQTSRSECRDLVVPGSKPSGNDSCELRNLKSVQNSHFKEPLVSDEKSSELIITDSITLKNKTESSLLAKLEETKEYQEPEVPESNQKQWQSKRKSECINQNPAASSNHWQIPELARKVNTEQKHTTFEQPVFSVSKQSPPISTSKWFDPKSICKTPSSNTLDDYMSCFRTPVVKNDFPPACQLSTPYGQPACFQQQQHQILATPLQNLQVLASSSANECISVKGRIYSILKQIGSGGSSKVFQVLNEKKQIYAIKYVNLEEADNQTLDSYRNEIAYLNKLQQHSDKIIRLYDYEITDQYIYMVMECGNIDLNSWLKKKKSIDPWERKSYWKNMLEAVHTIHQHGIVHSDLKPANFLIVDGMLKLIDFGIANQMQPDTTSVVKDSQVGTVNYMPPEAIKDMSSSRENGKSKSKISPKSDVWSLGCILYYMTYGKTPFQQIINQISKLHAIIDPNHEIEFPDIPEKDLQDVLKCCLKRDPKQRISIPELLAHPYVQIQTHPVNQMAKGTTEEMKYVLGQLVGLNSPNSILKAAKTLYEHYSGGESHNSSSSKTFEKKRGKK
Procedure: as §1

[9] = molecular target: PIM1 (Homo sapiens, UniProt P11309)
Procedure: as §1

[10] = molecular target: DAPK3 (Homo sapiens, UniProt O43293)
DAPK3, sequence (O43293 whole entry): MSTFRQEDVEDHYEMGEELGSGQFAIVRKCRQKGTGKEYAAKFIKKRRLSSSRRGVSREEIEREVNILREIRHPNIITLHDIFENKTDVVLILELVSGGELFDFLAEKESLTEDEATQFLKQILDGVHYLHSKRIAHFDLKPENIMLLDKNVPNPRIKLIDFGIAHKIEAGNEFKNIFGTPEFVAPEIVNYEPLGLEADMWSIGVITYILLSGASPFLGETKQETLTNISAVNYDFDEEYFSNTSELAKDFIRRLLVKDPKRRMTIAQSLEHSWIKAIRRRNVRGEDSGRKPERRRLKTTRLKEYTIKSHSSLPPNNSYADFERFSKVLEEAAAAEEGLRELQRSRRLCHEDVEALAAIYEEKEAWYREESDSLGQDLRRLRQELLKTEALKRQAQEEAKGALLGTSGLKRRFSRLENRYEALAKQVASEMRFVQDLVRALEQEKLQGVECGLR
Procedure: as §1

[11] = molecular target: PRKD1 (Homo sapiens, UniProt Q15139)
Procedure: as §1

[12] = molecular target: PRKD3 (Homo sapiens, UniProt O94806)
PRKD3, sequence (O94806 whole entry): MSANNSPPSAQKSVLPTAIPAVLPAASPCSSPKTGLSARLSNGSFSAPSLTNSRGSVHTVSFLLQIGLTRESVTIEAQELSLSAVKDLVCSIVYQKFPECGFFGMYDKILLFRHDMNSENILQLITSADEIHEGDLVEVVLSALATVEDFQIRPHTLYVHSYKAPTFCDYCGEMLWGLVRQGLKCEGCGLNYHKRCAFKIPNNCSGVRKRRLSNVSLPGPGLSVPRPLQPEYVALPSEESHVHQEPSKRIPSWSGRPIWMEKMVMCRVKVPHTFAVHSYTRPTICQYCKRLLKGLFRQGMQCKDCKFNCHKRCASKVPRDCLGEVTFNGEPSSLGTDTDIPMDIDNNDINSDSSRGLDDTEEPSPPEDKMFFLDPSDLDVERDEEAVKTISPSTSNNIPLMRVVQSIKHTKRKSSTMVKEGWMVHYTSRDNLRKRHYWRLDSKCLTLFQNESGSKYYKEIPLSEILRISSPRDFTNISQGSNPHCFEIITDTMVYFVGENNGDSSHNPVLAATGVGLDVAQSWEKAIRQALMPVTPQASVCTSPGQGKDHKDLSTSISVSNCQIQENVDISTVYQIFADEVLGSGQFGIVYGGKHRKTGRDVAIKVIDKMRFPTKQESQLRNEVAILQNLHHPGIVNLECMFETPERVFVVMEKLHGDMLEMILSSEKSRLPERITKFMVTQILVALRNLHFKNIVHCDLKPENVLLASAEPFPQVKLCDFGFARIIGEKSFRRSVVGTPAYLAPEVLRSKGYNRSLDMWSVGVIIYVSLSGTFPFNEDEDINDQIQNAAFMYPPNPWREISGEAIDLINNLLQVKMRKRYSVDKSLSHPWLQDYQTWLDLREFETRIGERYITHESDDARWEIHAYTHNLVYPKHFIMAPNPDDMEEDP
Procedure: as §1

[13] = molecular target: FLT3(N841I) (Homo sapiens, UniProt P36888, N841I)
Procedure: as §1

[14] = molecular target: CDK8 (Homo sapiens, UniProt P49336)
Procedure: as §1

[15] = molecular target: TIE1 (Homo sapiens, UniProt P35590)
Procedure: as §1

[16] = molecular target: T2, CAMK1B (Homo sapiens, UniProt Q6P2M8)
T2 construct: gene PNCK
T2 sequence (Q6P2M8 whole entry): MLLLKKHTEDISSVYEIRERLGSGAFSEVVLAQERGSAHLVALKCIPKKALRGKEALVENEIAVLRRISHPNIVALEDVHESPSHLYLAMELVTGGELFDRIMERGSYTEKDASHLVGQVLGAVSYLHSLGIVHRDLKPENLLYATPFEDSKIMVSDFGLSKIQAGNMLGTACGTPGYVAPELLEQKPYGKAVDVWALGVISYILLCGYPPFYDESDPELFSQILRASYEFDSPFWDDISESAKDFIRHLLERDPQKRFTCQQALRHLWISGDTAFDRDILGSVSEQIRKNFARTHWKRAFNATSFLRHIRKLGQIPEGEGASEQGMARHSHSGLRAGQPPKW
Procedure: as §1

[17] = molecular target: ABL2 (Homo sapiens, UniProt P42684)
Procedure: as §1

[18] = molecular target: T3, RSK1(Kin.Dom.1-N-terminal) (Homo sapiens, UniProt Q15418)
T3 construct: gene RPS6KA1; Kin.Dom.1-N-terminal
T3 sequence (Q15418 whole entry): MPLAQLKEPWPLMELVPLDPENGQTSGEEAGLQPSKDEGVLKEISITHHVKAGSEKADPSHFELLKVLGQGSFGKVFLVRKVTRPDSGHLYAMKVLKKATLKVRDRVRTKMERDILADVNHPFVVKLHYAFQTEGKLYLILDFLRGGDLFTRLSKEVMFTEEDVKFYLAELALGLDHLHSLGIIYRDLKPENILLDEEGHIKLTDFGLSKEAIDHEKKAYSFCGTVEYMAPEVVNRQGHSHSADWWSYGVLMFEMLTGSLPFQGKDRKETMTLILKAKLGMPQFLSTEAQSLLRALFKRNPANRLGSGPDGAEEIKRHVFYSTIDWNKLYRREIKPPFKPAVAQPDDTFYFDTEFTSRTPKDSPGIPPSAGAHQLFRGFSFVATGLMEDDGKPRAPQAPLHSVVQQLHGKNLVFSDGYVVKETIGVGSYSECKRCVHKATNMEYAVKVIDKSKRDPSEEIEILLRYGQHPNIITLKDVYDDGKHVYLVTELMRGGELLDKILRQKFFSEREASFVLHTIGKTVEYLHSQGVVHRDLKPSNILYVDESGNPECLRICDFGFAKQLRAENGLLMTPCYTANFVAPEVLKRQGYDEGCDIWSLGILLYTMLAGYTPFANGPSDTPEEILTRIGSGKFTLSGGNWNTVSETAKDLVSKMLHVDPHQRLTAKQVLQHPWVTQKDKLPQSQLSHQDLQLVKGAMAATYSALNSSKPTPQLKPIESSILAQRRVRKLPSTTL
Procedure: as §1

[19] = molecular target: T4, CDC2L2 (Homo sapiens, UniProt Q9UQ88)
T4 construct: gene CDK11A
Procedure: as §1

[20] = molecular target: SRMS (Homo sapiens, UniProt Q9H3Y6)
SRMS, sequence (Q9H3Y6 whole entry): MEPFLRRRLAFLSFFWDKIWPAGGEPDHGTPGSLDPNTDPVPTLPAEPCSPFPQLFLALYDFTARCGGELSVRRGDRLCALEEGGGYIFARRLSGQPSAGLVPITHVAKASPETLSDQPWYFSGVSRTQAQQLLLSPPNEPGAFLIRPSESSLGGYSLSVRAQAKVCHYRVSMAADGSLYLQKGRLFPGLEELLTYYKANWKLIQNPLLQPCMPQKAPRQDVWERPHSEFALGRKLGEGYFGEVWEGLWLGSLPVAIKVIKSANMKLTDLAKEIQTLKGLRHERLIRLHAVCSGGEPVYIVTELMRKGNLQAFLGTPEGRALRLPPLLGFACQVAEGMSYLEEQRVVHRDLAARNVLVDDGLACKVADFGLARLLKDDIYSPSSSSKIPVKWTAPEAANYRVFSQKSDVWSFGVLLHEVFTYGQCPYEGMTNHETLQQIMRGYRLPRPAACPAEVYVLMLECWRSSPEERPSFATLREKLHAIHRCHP
Procedure: as §1

[21] = molecular target: FGFR3 (Homo sapiens, UniProt P22607)
Procedure: as §1

[22] = molecular target: T5, PRKR (Homo sapiens, UniProt P19525)
T5 construct: gene EIF2AK2
Procedure: as §1

[23] = molecular target: T6, MLCK (Homo sapiens, UniProt Q32MK0)
T6 construct: gene MYLK3
Procedure: as §1

[24] = molecular target: NEK11 (Homo sapiens, UniProt Q8NG66)
Procedure: as §1

inhibition at 1 µM [1]: 0%
inhibition at 1 µM [2]: 0%
inhibition at 1 µM [3]: 0%
inhibition at 1 µM [4]: 13%
inhibition at 1 µM [5]: 25%
inhibition at 1 µM [6]: 39%
inhibition at 1 µM [7]: 0%
inhibition at 1 µM [8]: 2%
inhibition at 1 µM [9]: 2%
inhibition at 1 µM [10]: 0%
inhibition at 1 µM [11]: 15%
inhibition at 1 µM [12]: 0%
inhibition at 1 µM [13]: 0%
inhibition at 1 µM [14]: 0%
inhibition at 1 µM [15]: 11%
inhibition at 1 µM [16]: 28%
inhibition at 1 µM [17]: 0%
inhibition at 1 µM [18]: 0%
inhibition at 1 µM [19]: 0%
inhibition at 1 µM [20]: 17%
inhibition at 1 µM [21]: 1%
inhibition at 1 µM [22]: 7%
inhibition at 1 µM [23]: 4%
inhibition at 1 µM [24]: 12%
SMILES: CNS(=O)(=O)c1ccc(N(C)C)c(Nc2nc(C)nc3cc(OC)c(OC)cc23)c1 [compound 15, 3-((6,7-dimethoxy-2-methylquinazolin-4-yl)amino)-4-(dimethylamino)-N-methylbenzenesulfonamide]
